Source: US20240027453A1, “METHOD FOR DETECTION AND QUANTITATIVE MONITORING OF INFECTIONS WITH HERPESVIRUSES” (The Trustees of Princeton University, priority 2020, published 2024)
Like-named read-outs stand apart in the source and are kept apart here.

System: HCMV
Assay type: cell-based
Description: In example herpesvirus PRM assay methods shown herein, cell pellets were lysed in 2% SDS, 100 mM NaCl, 0.5 mM EDTA, 50 mM Tris, pH 8.2, and 50 μg of protein was reduced and alkylated with 25 mM TCEP and 50 mM CAM respectively for 20 min at 70° C. Proteins were then precipitated via methanol chloroform precipitation (Wessel & Flugg, Anal Biochem. 138(1):141-143, 1984), resuspended in 50 mM HEPES, pH 8.2 and digested overnight with trypsin (50:1 protein:enzyme w/w ratio). Digested peptides were desalted by SDB-RPS StageTip as previously described (Lum et al., Cell Syst., 7(6):[…], 2018; Greco et al., Methods Mol Biol 1410:39-63, 2016; Federspiel & Cristea, Methods Mol Biol., 1977:115-143, 2019).
Peptides (1.0 μg on column) were analyzed by LC-MS/MS using a Dionex Ultimate 3000 UHPLC coupled online to an EASYSpray ion source and a Q Exactive HF. Peptides were separated on an EASYSpray C18 column (75 μm×25 cm) heated to 50° C. using a linear gradient of 5% B to 32% B over 60 min at a flow rate of 250 nL/min and were ionized at 1.7 kv. Mobile phase A consisted of 0.1% FA in H2O and mobile phase B consisted of 0.1% FA, 2.9% H2O in ACN.
The PRM method was controlled by a peptide inclusion list with retention time windows of 6 min for selected precursor ions.
The PRM assay was developed and analyzed using the open-source software Skyline (Maclean et al., Bioinformatics 26(7):966-968, 2010). Summed area under the curve of 3-4 transitions per peptide was used for quantitation. Targeted peptides were normalized to host protein loading control peptides. Peptide values for each sample were scaled to the average of each peptide across all runs. The average of multiple peptides was used as the inferred value for the protein measurement when more than one peptide was quantified (Federspiel et al., PLoS Biol. 17(9):e3000437. Doi: 10.1371/journal.pbio.3000437). PRM quantitation data were graphed using the Python Seaborn and Matplotlib libraries.
MRC5 primary human fibroblasts (HFs) (ATCC CCL-171) were used as the model system for HSV-1 and HCMV infections and were cultured in complete growth medium (DMEM supplemented with 10% fetal bovine serum and 1% penicillin-streptomycin antibiotics) at 37° C. and 5% CO2. iSLK.219 cells harboring latent KSHV (a gift from Dr. Britt Glaunsinger, University of California, Berkeley) were grown in complete growth medium supplemented with 500 μg/ml hygromycin (ThermoFisher Scientific, 10687010) at 37° C. and 5% CO2. All cells were used for experiments within a maximum of 10 passages.
Wild type HSV-1 strain 17+ (a gift from Beate Sodeik, Hannover Medical School, Hannover, Germany) was propagated as previously described (Diner et al., 2015). Briefly, PO stocks were generated by electroporating pBAC-HSV-1 into U-2 OS cells. […] In a similar manner, wild type HCMV strain AD169 was produced from BAC electroporation into HFs and working stocks were propagated by infecting HFs at a low level. In both cases, cell-associated virus was released by sonication, combined with supernatant virus, then concentrated by ultracentrifugation (20,000 rpm, 2 hours, 4° C. with SW28 swinging bucket rotor [Beckman Coulter]) over a 10% ficoll (HSV-1) or 20% sorbitol (HCMV) cushion. Virus stock titers were determined by plaque assay for HSV-1 or tissue culture infectious dose (TCID50) for HCMV and infections were performed at a multiplicity of infection (MOI) of 3.
12 hours prior to virus infection or reactivation, cells were treated with either the small molecule drug or DMSO/PBS control at an equivalent volume. […] For infection cycles lasting longer than 24 hours, small molecule drugs were re-added to the cell culture medium every 24 hours. Upon collection, cells were rinsed with PBS, scraped into a microcentrifuge tube, pelleted by centrifugation, and rinsed again with PBS.

Nc1ccn(C[C@@H](CO)OCP(=O)(O)O)c(=O)n1 [CDV, cidofovir]
gB (P06473) protein, numerical value of heatmap FIG. 6C (DE, timepoint 96): 0.9959
sp|P09710|IR01_HCMVA (P09710) protein, numerical value of heatmap FIG. 6C (DE, timepoint 96): 0.4967
CVC2 (P16726) protein, numerical value of heatmap FIG. 6C (DE, timepoint 120): 0.9588
DBP (P17147) protein, numerical value of heatmap FIG. 6C (DE, timepoint 120): 2.035
HELI (P16736) protein, numerical value of heatmap FIG. 6C (DE, timepoint 120): 1.128
NEC1 (P16794) protein, numerical value of heatmap FIG. 6C (DE, timepoint 120): 1.121
NEC2 (P16791) protein, numerical value of heatmap FIG. 6C (DE, timepoint 120): 1.797
RIR1 (P16782) protein, numerical value of heatmap FIG. 6C (DE, timepoint 120): 1.313
TRM1 (P16724) protein, numerical value of heatmap FIG. 6C (DE, timepoint 120): 1.312
UL4 (P17146) protein, numerical value of heatmap FIG. 6C (DE, timepoint 120): 0.635
UL26 (P16762) protein, numerical value of heatmap FIG. 6C (DE, timepoint 120): 1.564
UL32 (P08318) protein, numerical value of heatmap FIG. 6C (DE, timepoint 120): 1.478
UL34 (P16812) protein, numerical value of heatmap FIG. 6C (DE, timepoint 120): 0.9444
UL35 (P16766) protein, numerical value of heatmap FIG. 6C (DE, timepoint 120): 1.133
UL38 (P16779) protein, numerical value of heatmap FIG. 6C (DE, timepoint 120): 1.272
UL44 (P16790) protein, numerical value of heatmap FIG. 6C (DE, timepoint 120): 1.235
UL48 (P16785) protein, numerical value of heatmap FIG. 6C (DE, timepoint 120): 1.1
UL54 (P08546) protein, numerical value of heatmap FIG. 6C (DE, timepoint 120): 1.415
UL71 (P16823) protein, numerical value of heatmap FIG. 6C (DE, timepoint 120): 1.229
UL78 (P16751) protein, numerical value of heatmap FIG. 6C (DE, timepoint 120): 0.9208
UL84 (P16727) protein, numerical value of heatmap FIG. 6C (DE, timepoint 120): 1.217
UL95 (P16801) protein, numerical value of heatmap FIG. 6C (DE, timepoint 120): 0.7275
UL96 (P16787) protein, numerical value of heatmap FIG. 6C (DE, timepoint 120): 1.265
UL97 (P16788) protein, numerical value of heatmap FIG. 6C (DE, timepoint 120): 1.137
UL98 (P16789) protein, numerical value of heatmap FIG. 6C (DE, timepoint 120): 1.14
UL102 (P16827) protein, numerical value of heatmap FIG. 6C (DE, timepoint 120): 1.353
UL104 (P16735) protein, numerical value of heatmap FIG. 6C (DE, timepoint 120): 0.8938
UL112/UL113 (P17151) protein, numerical value of heatmap FIG. 6C (DE, timepoint 120): 0.8795
UL114 (P16769) protein, numerical value of heatmap FIG. 6C (DE, timepoint 120): 1.541
UL119/UL118 (P16739) protein, numerical value of heatmap FIG. 6C (DE, timepoint 120): 0.8678
UL128 (P16837) protein, numerical value of heatmap FIG. 6C (DE, timepoint 120): 1.193
US8 (P09730) protein, numerical value of heatmap FIG. 6C (DE, timepoint 120): 1.14
US9 (P09729) protein, numerical value of heatmap FIG. 6C (DE, timepoint 120): 1.342
US12 (P09721) protein, numerical value of heatmap FIG. 6C (DE, timepoint 120): 0.661
US13 (P09720) protein, numerical value of heatmap FIG. 6C (DE, timepoint 120): 0.7786
US14 (P09719) protein, numerical value of heatmap FIG. 6C (DE, timepoint 120): 0.6977
US18 (P69334) protein, numerical value of heatmap FIG. 6C (DE, timepoint 120): 0.679
US22 (P09722) protein, numerical value of heatmap FIG. 6C (DE, timepoint 120): 1.167
US23 (P09701) protein, numerical value of heatmap FIG. 6C (DE, timepoint 120): 1.024
US24 (P09700) protein, numerical value of heatmap FIG. 6C (DE, timepoint 120): 1.043
gB (P06473) protein, numerical value of heatmap FIG. 6C (DE, timepoint 120): 1.203
sp|P09710|IR01_HCMVA (P09710) protein, numerical value of heatmap FIG. 6C (DE, timepoint 120): 0.7849
IRS1 (P09715) protein, numerical value of heatmap FIG. 6C (IE, timepoint 24): 0.2
TRS1 (P09695) protein, numerical value of heatmap FIG. 6C (IE, timepoint 24): 0.1103
UL13 (P16755) protein, numerical value of heatmap FIG. 6C (IE, timepoint 24): 0.5131
UL36 (P16767) protein, numerical value of heatmap FIG. 6C (IE, timepoint 24): 0.9885
UL37 (P16778) protein, numerical value of heatmap FIG. 6C (IE, timepoint 24): 0.5466
UL122 (P19893) protein, numerical value of heatmap FIG. 6C (IE, timepoint 24): 0.05364
UL123 (P13202) protein, numerical value of heatmap FIG. 6C (IE, timepoint 24): 0.7324
IRS1 (P09715) protein, numerical value of heatmap FIG. 6C (IE, timepoint 48): 0.5408
TRS1 (P09695) protein, numerical value of heatmap FIG. 6C (IE, timepoint 48): 0.403
UL13 (P16755) protein, numerical value of heatmap FIG. 6C (IE, timepoint 48): 0.7812
